Row | melting point [°C] | Structure (SMILES)
1 | 175 to 178 | CSc1nnc(Cc2ccccc2S(N)(=O)=O)s1
2 | 106 to 108 | CC1(C)C=C(c2ccccn2)c2cc(C#N)ccc2O1
3 | 130 to 133 | COC(=O)CCc1cc2cc(Cl)ccc2n1S(=O)(=O)c1ccc(C(C)(C)C)cc1
4 | 83 to 85 | CC(C)Oc1ccc(N)c(CC#N)n1
5 | 93 to 97 | O=C(ON=C(Br)Br)c1ccc(Cl)cc1
6 | 205 to 215 | Cc1cc2c(c(C(O)c3cn(C(c4ccccc4)(c4ccccc4)c4ccccc4)cn3)c1)OC(C)(C)OC2 (configuration not stated)
7 | 89 | Cc1c(OCc2ccccc2)c(=O)ccn1CC(=O)NCCCCNCCCNC(=O)Cn1ccc(=O)c(OCc2ccccc2)c1C
8 | 196 to 198 | O=C(Nc1cc(C(F)(F)F)cc(C(F)(F)F)c1)c1ccccc1O
9 | 177 to 178 | Cc1ccc(-c2ccc3c(c2)CCc2nn(-c4ccccn4)c(O)c2-3)cc1
10 | 88 to 89 | CN(CCO)c1cc(C(c2cc(F)ccc2F)S(=O)(=O)c2ccc(Cl)cc2)c(Cl)cn1 (configuration not stated)
11 | 188 to 192 | CCN1CC2=C(C1)CN(c1c(F)cc3c(=O)c(C(=O)O)cn(C4CC4)c3c1F)C2
12 | 124 to 126 | CCCCCCCCOc1ccc(C(=O)c2ccccc2)c(O)c1Cc1cc(C)cc(-n2nc3ccccc3n2)c1O
13 | 280 to 282 | CC(=O)NC1CCCN(c2c(F)cc3c(=O)c(C(=O)O)cn(C4CC4)c3c2F)C1 (configuration not stated)
14 | 235 to 236 | NNC(=O)c1ccc(C(=O)O)cc1
15 | 218 | Oc1ccc(Nc2cnc3cc(Cl)ccc3c2)cc1
16 | 73 to 74 | COc1ccc2c(n1)c(CCNC(C)=O)c1n2CCCc2ccccc2-1
17 | 162 to 164 | CCOC(=O)Cc1ncnc2c([N+](=O)[O-])cccc12
18 | 78 to 79 | CCc1ccc(OC)c(-c2cc(C(C)(C)C)c(O)c(C(C)(C)C)c2)c1
19 | 207 to 208 | Cc1cc(C(=O)Nc2c(NC(=O)CCl)ccc3c2C(=O)c2ccccc2C3=O)c(C)o1
20 | 105 to 107 | CCC(=O)N(CC)c1cccc(C(=O)C=CN(C)C)c1
21 | 96 to 99 | Cc1cc(F)ccc1-c1nc(OCCN)nc2c1ccc(=O)n2-c1c(F)cccc1F
22 | 186 | CS(=O)(=O)C(=C1CN(C(c2ccccc2)c2ccccc2)C1)c1ccc(F)cc1
23 | 131 to 133 | COc1ccc2[nH]c(SCc3nccc(N4CCCC4)c3Cl)nc2c1

Row | melting point [°C] | Structure (SMILES)
24 | 192 to 194 | Cc1cc2oc(-c3ccccn3)nc2cc1N=C=S
25 | 101 to 102 | CCCSc1cn(C)cc(-c2cccc(C(F)(F)F)c2)c1=O
26 | 190 to 192 | CSc1cccc(-n2cnc(C(=O)O)c2)c1
27 | 180 to 183 | CCCCCCOC(=O)Nc1ccc2c(c1)NC(=O)C2(C)C
28 | 179 to 181 | COc1c(C2CCN(CCCCNC(=O)c3ccc(-c4ccc(C#N)nc4)cc3)CC2)ccc2c1CCCC2
29 | 106 to 110 | O=C(O)Cc1cc2c(s1)-c1ccccc1SC2
30 | 65.4 to 66.8 | COc1c(C)c2c(c(OS(=O)(=O)c3ccc(C)cc3)c1CC1=C(C)C(=O)CC1)C(=O)OC2
31 | 226 to 228 | CN1CCN(Cc2ccccc2-c2cc3c(Nc4ccc5[nH]ccc5c4)c(C#N)cnc3s2)CC1
32 | 116 | c1c2c(cc3c1OCO3)CN(CN1CCc3cc4c(cc3C1)OCO4)CC2
33 | 136 to 137 | COC(=O)c1cc(-c2nc(COc3ccc(C=O)cc3OC)c(C)o2)ccc1C
34 | 81 to 82 | CCCCCCC(C)OC(=O)c1ccc(-c2ccc(-c3ccc(C(=O)OC(C)CCCCCC)cc3)cc2)cc1 (configuration not stated)
35 | 111 to 112 | O=C(O)CCCc1ccc(C(=O)CCCc2ccccc2)cc1
36 | 180 to 181 | COc1cc(-c2nc(C)c(C(=O)NN)s2)cc(OC)c1OC
37 | 187 | CCN1C(=O)COc2ccc(-c3nn[nH]c3-c3cccc(C)n3)cc21
38 | 59 | CC(=O)CC(=O)c1ccc2c3c(cccc13)CC2
39 | 250 to 251 | CC1CNc2ccc(NC3=NCCN3)c(Br)c2N1 (configuration not stated)
40 | 140 to 141 | COc1cc(OC)cc(N2CCN(C(=O)Nc3nc4ccccc4nc3OC)CC2)c1
41 | 130 to 132 | CCCCc1nc2cccc(CCO)c2n1Cc1ccccc1Cl
42 | > 330 | CCCCCc1cc(O)c2c(c1)OC(C)(C)[C@H]1CC=C(C(=O)NCC(O)CNC(=O)c3ccc4c(c3)C(=O)OC43c4ccc(O)cc4Oc4cc(O)ccc43)C[C@H]21 (some centres not stated)
43 | > 300 | CCCC(CCNC(=O)C(C#N)=Cc1cc(O)c(O)c(O)c1)NC(=O)C(C#N)=Cc1cc(O)c(O)c(O)c1 (configuration not stated)
44 | 106 to 108 | CC(C)(C)OC(=O)NCCNC(=O)c1ccc(Cl)cn1
45 | 136 to 137 | COP(=O)(OC)C(c1ccc(F)cc1)(c1ccc(F)cc1)c1ccc(Cl)cc1
46 | 224 to 227 | Cc1cc(=O)[nH]nc1-c1cccc(C(F)(F)F)c1

Row | melting point [°C] | Structure (SMILES)
47 | 155 to 157 | CCOC(=O)C(=CNc1coc2ccccc2c1=O)C(=O)OCC
48 | 130 | O=[N+]([O-])c1ccc(O)c(-c2ccsc2)c1
49 | 120 | COc1cc2c(cc1OC)CN(CCCc1ccc(NC(=O)c3cccc4c(=O)c5cccc(C)c5[nH]c34)cc1)CC2
50 | 121 | CCCN(C(N)=S)c1ccc(Cl)cc1Cl
51 | 142 to 143 | O=C1OC(=O)C2=C1CCOc1ccccc12
52 | 116 to 117 | CC(Cc1ccccc1)(C(=O)O)S(=O)(=O)c1cccs1 (configuration not stated)
53 | 106 to 108 | CC(=O)c1c(-c2cc(C)cs2)sc(-c2ccncc2)c1C
54 | 122 to 123 | Nc1cc(-n2ccnc2)c(F)cc1[N+](=O)[O-]
55 | 147 to 149 | Cc1ccc2c(c1)Sc1ccc(F)cc1C(N1CCN(CCN3CCOC3=O)CC1)C2 (configuration not stated)
56 | 89 to 95 | OCC1OC(n2cnc3c(NCC(c4ccccc4)c4ccc(Cl)cc4)ncnc32)C(O)C1O (configuration not stated)
57 | 139 to 140 | CC(C)S(=O)(=O)O[C@H]1C[C@@H](C(=O)O)N(C(=O)c2ccccc2Br)C1
58 | 298 | COc1ccc(-c2[nH]nc3c2C(=O)c2c(NC(=O)CN4CCSCC4)cccc2-3)cc1
59 | 143 | Cc1cc(C)n2nc(Sc3ccccc3Cl)nc2n1
60 | 242 to 248 | Cc1onc(-c2ccccc2)c1-c1ccc(S(=O)(=O)NCC(=O)O)cc1
61 | 192 to 193 | CC(=O)OC1CCC2(C)C(CCC3C2CCC2(C)C(N)C(O)CC32)C1 (configuration not stated)
62 | 134 to 135 | COC(=O)c1ccc(-c2nc(-c3ccc(C(C)C)cc3)cs2)cc1
63 | 98 to 101 | C#CCN(C(C)=O)c1cccc(C(=O)C=CN(C)C)c1
64 | 202 to 203 | CCOC(=O)c1cc2cc(NC(C)=O)ccc2[nH]1
65 | 148 to 151 | CN1CCN(C2=Nc3cscc3C(=CC#N)c3cscc32)CC1
66 | 189 to 190 | CC(C)(O)CNc1c([N+](=O)[O-])cnc2cc(Br)cnc12
67 | 106 | O=C(c1ccccc1)n1c(SC(F)(F)F)cc(-c2ccc(F)cc2)c1-c1ccc(F)cc1
68 | 158 to 159 | Cc1oc(-c2ccccc2)nc1COc1ccc(CCC2OC(=O)NC2=O)cc1 (configuration not stated)
69 | 99 to 100 | Cc1oc(-c2ccccc2)nc1COc1cc(CO)on1

Row | melting point [°C] | Structure (SMILES)
70 | 124 to 127 | CC(C)(C)c1ccc(S(=O)(=O)Oc2ccc(C(C)(C)c3ccc(OS(=O)(=O)c4ccc(C(C)(C)C)cc4)cc3)cc2)cc1
71 | 241 to 243 | Cc1nc(NC(=O)C2CC2)sc1C(=O)NCc1ccccc1
72 | 225 to 227 | COc1cccc(COc2cccc3c2CN(C2CCC(=O)NC2=O)C3=O)c1 (configuration not stated)
73 | 163 to 165 | CC(=O)OC1CCC2(C)C3=CCC4(C)C(C(C)=O)CCC4C3CCC2C1 (configuration not stated)
74 | 185 to 187 | COc1cc(-c2n[nH]c3c2Cc2ccccc2-3)cc(OC)c1OC
75 | 250 to 252 | Oc1ccc(-c2nc(-c3ccccc3)nc(-c3ccc(O)cc3O)n2)c(O)c1
76 | 46 to 48 | CCOC(=O)c1c(C(F)(F)F)nc(C(F)(F)F)c(C(=O)OC)c1Cl
77 | 180 to 182 | O=C1Nc2ccccc2C12COc1ccc3c(c12)N(Cc1ccccn1)ON3 (configuration not stated)
78 | 74.7 to 77.2 | CC(C)(C)OC(=O)CCON=C(C(=O)O)c1ccco1
79 | 264 to 265 | O=C1NN=C(c2ccc(NC(=O)C3CC3(Cl)Cl)cc2)C2CC12 (configuration not stated)
80 | 79 to 86 | C[Si](C)(Cn1cncn1)c1ccc(-c2ccccc2)cc1
81 | 48 to 51 | Cc1c(-c2ccccc2)c(N2CC[C@H](N(C)C)C2)c2oc(N3CC(CO)C3)nc2c1C#N
82 | 115 to 118 | O=C(c1ccc(F)cc1)N1CCCC(F)(c2nc(-c3ccc[nH]3)no2)C1 (configuration not stated)
83 | 146 | C#CCN1CC(=O)Oc2cc(F)c(NN)cc21
84 | 40 to 42 | COC1CC=C(c2ccc(C(C)=O)cc2)CC1 (configuration not stated)
85 | 145 to 147 | Cc1c(OCc2ccccc2)c(=O)ccn1CCCCCC(=O)O
86 | 110 to 111 | CC(=O)c1cc(Cl)c(OCCOc2ccc3ccccc3c2)c(Cl)c1
87 | 220 to 223 | O=C(O)Cn1c(=O)[nH][nH]c1=O
88 | 63 | COC(=O)c1cc(OCC=C(Cl)Cl)cc(Cl)c1OCC=C(Cl)Cl
89 | 138 | C=CCOc1ccc(-c2cc(C(=O)NCc3ccc(OC(C)(C)C(=O)O)c(C)c3)nn2C)cc1
90 | 55 to 64 | Cc1cc(C(=O)N2Cc3ccc(C(=O)N(CCCN(C)C)CCCN(C)C)n3Cc3ccccc32)ccc1-c1ccccc1C(F)(F)F
91 | 200 to 203 | CC(=O)Nc1cnc(-c2cc(Cl)cc(Cl)c2Cl)c(N)n1
92 | 181 to 183 | CC(C)(C)N(NC(=O)c1cnccn1)C(=O)c1ccccc1

Row | Structure (SMILES) | melting point [°C]
93 | N#Cc1nn(-c2c(Cl)cc(C(F)(F)F)cc2Cl)c(N)c1SC(F)(F)C(F)(F)F | 134 to 136
94 | COCN1C(=O)N(c2ccc(C#N)c(OC)c2)C(=O)C1(C)c1ccc(O)cc1 (configuration not stated) | 141
95 | COC(=O)C(C)(C)Cc1c(C(=O)C2CC2)c2cc(OCc3ccc4ccccc4n3)c(C(=O)C3CC3)cc2n1Cc1ccc(Cl)cc1 | 166 to 167
96 | CCCN(CCC)Cc1nc(-c2ncn3c2CN(C)C(=O)c2c(Br)cccc2-3)no1 | 135 to 145
97 | CCCC(=O)N[C@@H]1CCc2cccc(N3CCN(C)CC3)c2C1 | 131 to 132
